Measurements reported in PubChem BioAssay AID330 (DTP/NCI, 2004).
Values joined by “and” are separate entries in the source; they are usually repeats but may differ in a detail not shown here. Equal entries are not always repeated. Toxic doses and inconclusive results are not listed. Rule for the calls: active = survival T/C of 150% or more; inactive = T/C below 125% in these data. Square brackets hold non-standard residues; d marks the D form. Peptide text beside a SMILES is read from it. * marks the point of attachment. ξ: configuration not given here. Cbz = O=C(OCc1ccccc1)*; ξT = CC(O)C(N)C(=O)O

Tested on: P388 leukemia ip, CD2F1 mice, survival T/C
Experiment: NCI In Vivo Anticancer Drug Screen. Data for tumor model P388 Leukemia (intraperitoneal) in CD2F1 (CDF1) mice
Conditions: endpoint: median survival time, higher = longer survival
Summary of the method: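 Mice carrying the transplanted tumor received test compound or vehicle. Survival was recorded in each group, and the value is the treated-group measurement divided by that of the vehicle-treated control group.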

[1] = dose: 50.0 mg/kg/injection, schedule: Q01DX005 (ip), vehicle: saline
[2] = dose: 100.0 mg/kg/injection, schedule: Q01DX005 (ip), vehicle: saline
[3] = dose: 200.0 mg/kg/injection, schedule: Q01DX005 (ip), vehicle: saline
[4] = dose: 50.0 mg/kg/injection, schedule: Q01DX005 (ip), vehicle: Klucel (hydroxypropylcellulose) (HPC)
[5] = dose: 100.0 mg/kg/injection, schedule: Q01DX005 (ip), vehicle: Klucel (hydroxypropylcellulose) (HPC)
[6] = dose: 200.0 mg/kg/injection, schedule: Q01DX005 (ip), vehicle: Klucel (hydroxypropylcellulose) (HPC)
[7] = dose: 100.0 mg/kg/injection, schedule: Q01DX009 (ip), vehicle: saline
[8] = dose: 200.0 mg/kg/injection, schedule: Q01DX009 (ip), vehicle: saline
[9] = dose: 50.0 mg/kg/injection, schedule: Q01DX009 (ip), vehicle: saline
[10] = dose: 60.0 mg/kg/injection, schedule: Q01DX005 (ip), vehicle: saline with Tween-80
[11] = dose: 120.0 mg/kg/injection, schedule: Q01DX005 (ip), vehicle: saline with Tween-80
[12] = dose: 240.0 mg/kg/injection, schedule: Q01DX005 (ip), vehicle: saline with Tween-80
[13] = dose: 100.0 mg/kg/injection, schedule: Q04DX002 (ip), vehicle: Klucel (hydroxypropylcellulose) (HPC)
[14] = dose: 200.0 mg/kg/injection, schedule: Q04DX002 (ip), vehicle: Klucel (hydroxypropylcellulose) (HPC)
[15] = dose: 50.0 mg/kg/injection, schedule: Q01DX009 (ip), vehicle: Klucel (hydroxypropylcellulose) (HPC)
[16] = dose: 100.0 mg/kg/injection, schedule: Q01DX009 (ip), vehicle: Klucel (hydroxypropylcellulose) (HPC)
[17] = dose: 200.0 mg/kg/injection, schedule: Q01DX009 (ip), vehicle: Klucel (hydroxypropylcellulose) (HPC)
[18] = dose: 12.5 mg/kg/injection, schedule: Q01DX005 (ip), vehicle: saline
[19] = dose: 25.0 mg/kg/injection, schedule: Q01DX005 (ip), vehicle: saline
[20] = dose: 50.0 mg/kg/injection, schedule: Q01DX009 (ip), vehicle: saline with Tween-80
[21] = dose: 100.0 mg/kg/injection, schedule: Q01DX009 (ip), vehicle: saline with Tween-80
[22] = dose: 200.0 mg/kg/injection, schedule: Q01DX009 (ip), vehicle: saline with Tween-80

Measured: T/C

O=C1C=CC(=O)N1c1ccc(Cl)cc1
inactive: dose: 1.0 mg/kg/injection, schedule: Q01DX009 (ip), vehicle: Klucel (hydroxypropylcellulose) (HPC) 107 % of control | dose: 1.25 mg/kg/injection, schedule: Q01DX009 (ip), vehicle: Klucel (hydroxypropylcellulose) (HPC) 93 % of control | dose: 2.0 mg/kg/injection, schedule: Q01DX009 (ip), vehicle: Klucel (hydroxypropylcellulose) (HPC) 104 % of control | dose: 2.5 mg/kg/injection, schedule: Q01DX009 (ip), vehicle: Klucel (hydroxypropylcellulose) (HPC) 96 % of control | dose: 4.0 mg/kg/injection, schedule: Q01DX009 (ip), vehicle: Klucel (hydroxypropylcellulose) (HPC) 104 % of control | dose: 5.0 mg/kg/injection, schedule: Q01DX009 (ip), vehicle: Klucel (hydroxypropylcellulose) (HPC) 89 % of control | dose: 8.0 mg/kg/injection, schedule: Q01DX009 (ip), vehicle: Klucel (hydroxypropylcellulose) (HPC) 102 % of control | dose: 10.0 mg/kg/injection, schedule: Q01DX009 (ip), vehicle: Klucel (hydroxypropylcellulose) (HPC) 93 % of control

Oc1cc(O)cc(/C=C/c2ccccc2)c1
inactive: dose: 50.0 mg/kg/injection, schedule: Q01DX005 (ip), vehicle: water 107 % of control | dose: 100.0 mg/kg/injection, schedule: Q01DX005 (ip), vehicle: water 101 % of control

CC(=O)SC1(C(C(N)=S)c2ccccc2)CCN(C)CC1 (stereo not drawn)
inactive: [1] 105 % of control | [2] 111 % of control | [3] 101 % of control

ClC(Cl)(Cl)CN1CCCCC1Cc1ccccc1 (stereo not drawn)
inactive: dose: 30.0 mg/kg/injection, schedule: Q01DX005 (ip), vehicle: Klucel (hydroxypropylcellulose) (HPC) 101 % of control | dose: 60.0 mg/kg/injection, schedule: Q01DX005 (ip), vehicle: Klucel (hydroxypropylcellulose) (HPC) 100 % of control

CCCC(C)N(CC)CCNc1cc(OC)cc2cccnc12 (stereo not drawn)
inactive: [1] 106 % of control | [2] 88 % of control

O=C(Nc1ccc2[nH]c3ccccc3c2c1)c1ccccc1Cl
inactive: [4] 93 % of control | [5] 95 % of control | [6] 90 % of control

O=C(Nc1ccccc1)OCC[N+](CCO)(CCO)CCO
inactive: dose: 60.0 mg/kg/injection, schedule: Q01DX005 (ip), vehicle: water 100 % of control | dose: 120.0 mg/kg/injection, schedule: Q01DX005 (ip), vehicle: water 100 % of control | dose: 240.0 mg/kg/injection, schedule: Q01DX005 (ip), vehicle: water 99 % of control

CC(C)(CO)N(CCO)CCO
inactive: [1] 106 % of control | [2] 106 % of control | [3] 106 % of control

CSC(=S)N/N=C(\C)c1ccccc1
inactive: dose: 1.56 mg/kg/injection, schedule: Q01DX009 (ip), vehicle: saline 99 % of control | dose: 3.12 mg/kg/injection, schedule: Q01DX009 (ip), vehicle: saline 100 % of control | dose: 6.25 mg/kg/injection, schedule: Q01DX009 (ip), vehicle: saline 94 % of control and 97 % of control | [7] 98 % of control | [8] 90 % of control

N=C(N)SCc1cccc2c(=O)cc(-c3ccccc3)oc12
inactive: dose: 25.0 mg/kg/injection, schedule: Q01DX009 (ip), vehicle: saline 118 % of control | [9] 86 % of control and 93 % of control | [8] 113 % of control and 122 % of control

COc1ccc(C(=O)CC(=O)CCC(=O)Nc2ccc(Cl)cc2Cl)cc1
inactive: [10] 103 % of control | [11] 101 % of control | [12] 92 % of control

CCCCC1(CCCCCCCCCO)OCCO1
inactive: [13] 101 % of control | [14] 99 % of control | dose: 400.0 mg/kg/injection, schedule: Q04DX002 (ip), vehicle: Klucel (hydroxypropylcellulose) (HPC) 100 % of control

C[N+]1(CC2CC2)C2CC(OC(=O)C(CO)c3ccccc3)CC1C1OC12 (stereo not drawn)
inactive: [9] 99 % of control | [7] 96 % of control

CC1(C)C(=O)c2cc(Cl)ccc2C1(C)C
inactive: [4] 103 % of control | [5] 102 % of control | [6] 97 % of control

O=C1C(C(=Nc2cccc(Cl)c2)c2ccccc2)=C(O)c2ccccc21
inactive: dose: 25.0 mg/kg/injection, schedule: Q04DX002 (ip), vehicle: saline with Tween-80 93 % of control | dose: 50.0 mg/kg/injection, schedule: Q04DX002 (ip), vehicle: saline with Tween-80 95 % of control

COc1ccc2ccc3ccc(OC)nc3c2n1
inactive: [10] 92 % of control | [11] 95 % of control | [12] 108 % of control

CN(N=O)P(=O)(Nc1ccccc1)Nc1ccccc1
inactive: dose: 6.25 mg/kg/injection, schedule: Q01DX009 (ip), vehicle: other 100 % of control | dose: 25.0 mg/kg/injection, schedule: Q01DX009 (ip), vehicle: other 100 % of control | dose: 50.0 mg/kg/injection, schedule: Q01DX009 (ip), vehicle: other 100 % of control

O=C(CS(=O)(=O)c1ccccc1)CS(=O)(=O)c1ccccc1
inactive: [15] 96 % of control | [16] 98 % of control | [17] 99 % of control

CCNC(=O)C(C)O (stereo not drawn)
inactive: [1] 102 % of control | [2] 102 % of control | [3] 98 % of control

O=c1[nH]oc(=O)[nH]1
inactive: dose: 6.25 mg/kg/injection, schedule: Q01DX005 (ip), vehicle: saline 95 % of control | [18] 97 % of control | [19] 94 % of control | [1] 100 % of control and 91 % of control | [3] 100 % of control

CCOC(=O)C1=C(C)O/C(=C/C=C/c2ccccc2)C1=O
inactive: [15] 102 % of control | [16] 98 % of control | [17] 103 % of control

CCOC(=O)c1ccc(N(CCNc2cnc(NC(C)=O)[nH]c2=O)C(C)=O)cc1
inactive: dose: 25.0 mg/kg/injection, schedule: Q01DX009 (ip), vehicle: saline with Tween-80 92 % of control | [20] 88 % of control | [21] 92 % of control | [22] 89 % of control

CN(C)CC(CN(C)C)C(=O)c1ccc(Cl)c(Cl)c1
inactive: [18] 108 % of control | [19] 105 % of control | [1] 100 % of control and 104 % of control

Cc1ccc(N=Nc2c(C)nn(C(=S)S)c2C)cc1
inactive: [13] 100 % of control | [14] 105 % of control

COC(=O)C1CCCN1C(=O)C(CCCCNC(=O)OCc1ccccc1)NC(=O)OCc1ccccc1 (stereo not drawn) (Cbz-Lys(Cbz)-Pro-OMe; configuration not given here)
inactive: [1] 106 % of control | [2] 103 % of control | [3] 105 % of control

Cc1nc2c(=O)nc3n(c2nc1C)CCS3
inactive: dose: 100.0 mg/kg/injection, schedule: Q01DX001 (ip), vehicle: saline 104 % of control | dose: 200.0 mg/kg/injection, schedule: Q01DX001 (ip), vehicle: saline 102 % of control | dose: 400.0 mg/kg/injection, schedule: Q01DX001 (ip), vehicle: saline 104 % of control

CC(C)(C(=O)c1ccccc1)C(=O)c1ccccc1
inactive: [20] 95 % of control | [21] 100 % of control | [22] 95 % of control

CC(O)C(NC(=O)CNC(=O)CNC(=O)OCc1ccccc1)C(=O)O (stereo not drawn) (Cbz-Gly-Gly-[ξT]-OH)
inactive: [4] 96 % of control | [5] 98 % of control | [6] 95 % of control
